From patent publication US8492614B2, “Plant biochemical systems and uses thereof” (The Board of Trustees of the University of Illinois, priority 2007, dated 2013)
“Also recorded” adds a separate entry of the source. Read-outs that look alike come from different tables or passages of the source.

Experiments:
[1] = tested on: Japanese beetles; test: Predation on Harosoy soybean grown outside, with or without Phe in the planting media; type: in vivo; details: 1 mM Phe in planting media; 300 nm or no light on day 3; 21 d outside; listed as Phe
Procedure: As Phe is the starting substrate of the phenylpropanoid pathway it may be that inclusion of Phe in the growth media of young seedlings allows for the synthesis of many phenylpropanoids in addition to those that can act as UV-B screening pigments, and thereby prevent the deleterious effects other abiotic and biotic stress. To test this hypothesis we planted sets of seeds of Harosoy dense and Harosoy glabrous. Planting media for one set of plants of each isoline was supplemented with 1 mM final concentration of Phe. Three d after planting, germinating sets of seedlings were irradiated with a low fluence pulse of 300 nm (i.e. an abiotic stress), or no light (Untreated), then transplanted outside to grow in natural conditions for 21 d during the normal growing season. A random planting pattern for was generated for the six One leaf from the first set of leaves and one leaf (the middle of the trifoliate) from the second set of leaves was harvested on day 21. These leaves were each weighed directly (fresh weight) and scanned to have a pictorial representation of the experienced damage as shown in FIG. 28. […] Comparison among the six variations indicates predation mainly on the glabrous (hairless) plants.

[2] = tested on: glabrous soybean seedlings; test: UV sensitivity of glabrous versus dense-hair soybean isolines; type: in vivo; details: few-hair (glabrous) variety, small amounts of UV
Procedure: Varieties that show sensitivity to UV are retained for more detailed testing of responses to UV and exogenous regulators. […] As isoline of hard soy with dense hairs was tested vs. hard soy with few (glafrous) hairs. […] Isogenic lines of Harasoy “dense” (many hairs per area) and “glabrous” (few or no hairs per area) were used to see if hairs themselves directly assisted in protection from UV-B radiation. Seedlings were grown and treated in the same manner as that shown in FIG. 18, then the integrity of the internal structures assessed by TEM as shown in FIG. 18.

[3] = Stability of absorbance spectra of cell free extracts with or without phenylalanine; type: physicochemical, Arabidopsis; details: for stability of the extract solution (absorbance spectra, pigments) over time: cell free extracts in buffer, 24 h, room temperature or +4° C., lab lighting
Procedure: Cell free extracts were left at room temperature for 24 h after a 10^5 μmol m^−2 treatment of UV (366 nm) in lab lighting (which is fluorescent).

[4] = tested on: etiolated Arabidopsis gcr1, gpa1 or pd1 mutants; test: UV sensitivity of etiolated Arabidopsis mutants with phenylalanine added to the growth media; type: in vivo
[5] = pH 7.4
[6] = tested on: etiolated soybean seedlings; test: Soybean seedlings irradiated with low fluence UV, grown with or without phenylalanine in the growth media; type: in vivo, soybean (Glycine max L.); details: for protection from the effects of high energy UV (lack of seed development, seed death): 1 mM phenylalanine in growth media, low fluence 300, 305, 311 or 317 nm on day 3 after planting
Text: Three varieties, Williams, Forrest, and Williams 82, serve as the progenitor germplasms used in many US soybean breeding programs. These germplasms were used in the experiments described in the Examples, and representative data is shown. In general soybean experiments are done using etiolated seedlings irradiated 3 days after planting or 7 days after planting, in contrast to the regime (6 days dark growth) used for Arabidopsis experiments. For the soybean experiments we have used a high intensity light source filtered through narrow band pass for a low fluence radiation dose of (10^4 μmol m^−2), with (10 nm half band width) filters of peak pass-through at 300, 305, 311, 317, 325, 332 and 368 nm. Soybean primary leaves are sensitive to UV, with the greatest damage occurring in response to irradiation with the greatest energy (smallest wavelength). Three day old etiolated wild type Williams, Forest and Williams 82 soybean seedlings of were individually irradiated with a single low fluence pulse of 300, 305, 311, 317, 325, 332, 368 nm or no light (as a control). After irradiation seedlings were maintained in a summer day-night cycle (14 hr white light: 10 hr dark) to allow for photoreactivation and other forms of light mediated repair until day 8. Irradiation with 300, 305 or 311 nm light results in a “severe” damage with a greater then 70% mortality rate by day 8 (FIGS. 9,10). Irradiation with 317 or 325 nm results in a ‘moderate’ response, with a mortality of approximately 20%. […] Seedlings irradiated with 300, 317 or 368 nm light, or no UV light (as a control) were assessed 3, 7, 14, 21 and 28 days post planting. […] The very young seedlings were able to use the phenylalanine in the growth media to supplement the limiting amounts available in the seed to produce a larger quantity of UV screening pigments, and perhaps other compounds important to UV protection, thereby protecting themselves against the UV itself and perhaps enacting enhanced repair functions after the UV irradiation. […]

N[C@@H](Cc1ccccc1)C(=O)O [phenylalanine]
predation on leaves [1]: experienced less predation; also recorded: can be reduced
correction of UV damage in the glabrous variety [2]: can correct these deficiencies
stability of the extract solution (absorbance spectra, pigments) over time [3]: remain stable over time; also recorded: clear difference in stability in the solution when phenylalanine is added
stability of the extract solution (absorbance spectra, pigments) over time ([3]; listed as Phenylalanine): remained stable
deviation from initial 24 h post absorbance spectra ([3]; extracts with phenylalanine added, UV (366 nm) treated, stored at +4° C. for 4 days): less than 10%
rescue of UV sensitivity of mutants [4]: can rescue gcr1, gpa1 or pd1 mutants
rescue of UV sensitivity of mutants ([4]; listed as Phe): restores waxes, fatty acids, UV-absorbing materials and restores resistance to UV damage in pd1 mutants; also recorded: able to respond to UV like wild type
degradation in buffered solution [5]: appeared to not degrade even for days
growth characteristics after UV irradiation ([6]; 1.0 mM Phe in growth media, seven d post-irradiation): restores growth characteristics regardless of UV wavelength
protection from the effects of high energy UV (lack of seed development, seed death) [6]: able to ameliorate the most negative of the effects of high energy UV
protection from the effects of high energy UV (lack of seed development, seed death) ([6]; listed as Phe): can overcome the most deleterious effects of high energy UV in soybean
